Experimental data from patent US20250382274A1, “COMPOSITIONS AND METHODS FOR THE TREATMENT OF PARKINSON'S AND GAUCHER DISEASE” (CHILDREN'S HOSPITAL MEDICAL CENTER, priority 2024, published 2025).
Numbering of substitutions follows the chain as printed.

Columns and labels:
[1] = biological target: T1, GCase (purified enzyme, Velaglucerase alfa, VPRIV) (Homo sapiens, UniProt P04062); experiment: GCase AC50 enzyme activity assay; assay type: biochemical; settings: pH 5.6, 4-MuGlu substrate, compounds 0-40 μM
T1 construct: purchased Shire Human Genetic Therapies, Cambridge, MA
T1 sequence (P04062 40-536): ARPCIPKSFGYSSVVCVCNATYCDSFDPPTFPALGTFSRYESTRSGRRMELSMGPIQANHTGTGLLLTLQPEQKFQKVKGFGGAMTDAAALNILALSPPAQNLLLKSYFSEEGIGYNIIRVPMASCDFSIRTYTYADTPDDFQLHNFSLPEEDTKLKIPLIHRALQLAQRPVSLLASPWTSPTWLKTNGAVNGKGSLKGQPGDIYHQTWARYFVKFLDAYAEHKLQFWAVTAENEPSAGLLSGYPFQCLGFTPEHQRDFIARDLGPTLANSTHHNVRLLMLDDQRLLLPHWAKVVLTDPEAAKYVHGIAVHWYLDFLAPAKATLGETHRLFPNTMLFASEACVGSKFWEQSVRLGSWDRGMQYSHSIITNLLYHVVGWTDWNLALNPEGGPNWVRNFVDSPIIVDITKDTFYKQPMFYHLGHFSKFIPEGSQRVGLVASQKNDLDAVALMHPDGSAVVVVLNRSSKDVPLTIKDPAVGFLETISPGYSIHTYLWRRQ
Protocol: An in vitro enzyme assay was performed through a dose response curve of Compounds (0-40 μM) with purified enzyme (Velaglucerase alfa, VPRIV®, Shire Human Genetic Therapies, Cambridge, MA) in citric phosphate [0.025 mM] buffer (pH 5.6) where 4-MuGlu [4 mM] was the substrate. Compounds were pre-incubated with the enzyme for 40 minutes at room temperature prior to substrate addition, and then incubated at 37° C. for 1 hour. AC50 represents the concentration of a Compound that produces 50% of its maximal response in the in vitro GCase activity assay.
(§1) GCase activities were determined fluorometrically with 4-MuGlu. The relative fluorescence unit (RFU) of 4-MuGlu standard curve is generated with the plate reader (M5, Molecular Devise) as 1 n mole=56500 RFU. The human mutant Gaucher fibroblasts were purchased from Coriell Institute (Camden, NJ): N370/ΔGG (Cat #: GM00852) and L444P/L444P (cat #: GM00877)

[2] = biological target: T2, GCase in healthy human fibroblasts (Homo sapiens, UniProt P04062); experiment: EC50 cell-based assay for GCase, healthy human fibroblasts (GCase cell); settings: 5 days compound treatment (0-20 μM)
T2 construct: Healthy human fibroblasts (GCase cell); endogenous in cells; host or cells: healthy human fibroblasts
T2 sequence (P04062 40-536): T1 sequence (P04062 40-536)
Protocol: (§2) In cell assays, GCase activity measurements were carried out on harvested cell pellets on the 5th day of Compound treatment. Healthy human fibroblasts (GCase cell), mutant N370/ΔGG (GCase N370S) or L444P/L444P (GCase L444P) were incubated with the Compound (0-20 μM) for 5 days with 15% fetal bovine serum (FBS) in Dulbecco's Modified Eagle Medium (DMEM) in 100 mm culture dishes. Fresh Medium with Compound were replaced every other day. On the 5th day of Compound treatment, harvested cell pellets were lysed with 1% Na-taurocholate (Tc) and 1% Triton X-100 (Tx), and mixed with the reaction buffer which contained 0.025 mM Citric phosphate buffer (pH 5.6), 0.25% Tc/Tx and 4 mM 4-MuGlu, then incubated at 37° C. for 1 hour. EC50 represents the concentration of a Compound that produces 50% of its maximal response in the cell-based GCase activity assay.
as §1

[3] = biological target: T3, GCase N370S (N370/ΔGG human mutant Gaucher fibroblasts) (Homo sapiens, UniProt P04062, N409S); experiment: EC50 cell-based assay for GCase, mutant N370/ΔGG fibroblasts (GCase N370S); settings: 5 days compound treatment (0-20 μM)
T3 construct: The human mutant Gaucher fibroblasts were purchased from Coriell Institute; host or cells: human Gaucher fibroblasts N370/ΔGG
T3 sequence (P04062 40-536 N409S): T1 sequence (P04062 40-536) with N370S
Protocol: as §2, §1

[4] = biological target: T4, GCase L444P (L444P/L444P human mutant Gaucher fibroblasts) (Homo sapiens, UniProt P04062, L483P); experiment: EC50 cell-based assay for GCase, mutant L444P/L444P fibroblasts (GCase L444P); settings: 5 days compound treatment (0-20 μM)
T4 construct: The human mutant Gaucher fibroblasts were purchased from Coriell Institute; host or cells: human Gaucher fibroblasts L444P/L444P
T4 sequence (P04062 40-536 L483P): T1 sequence (P04062 40-536) with L444P
Protocol: as §2, §1

| SMILES | AC50 [1] [µM] | EC50 [2] [µM] | EC50 [3] [µM] | EC50 [4] [µM] |
| --- | --- | --- | --- | --- |
| COc1ccc(NC(=O)C(C)(C)Oc2ccccc2C(=O)NCC2CCCO2)cc1 (centres unmarked) [Compound 32, 2-(2-(4-methoxyphenylcarbamoyl)propan-2-yloxy)-N-((tetrahydrofuran-2-yl)methyl)benzamide] | < 10 | < 10 | 10 to 100 |  |
| CC(C)(Oc1ccccc1C(=O)NCC1CCCO1)C(=O)NC1CCCCC1 (centres unmarked) [Compound 36, 2-[2-(cyclohexylamino)-1,1-dimethyl-2-oxo-ethoxy]-N-(tetrahydrofuran-2-ylmethyl)benzamide] | < 10 | < 10 |  |  |
| CC1(C)CCC(NC(=O)C(C)(C)Oc2ccc(F)cc2C(=O)NCC2CCO2)CO1 (centres unmarked) [Compound 39, 2-[2-[(6,6-dimethyltetrahydropyran-3-yl)amino]-1,1-dimethyl-2-oxo-ethoxy]-5-fluoro-N-(oxetan-2-ylmethyl)benzamide] | < 10 | < 10 |  |  |
| O=C(NCC1CCO1)c1cccc2c1CN(C(=O)NC1CCC(F)(F)CC1)C2 (centres unmarked) [Compound 41, N2-(4,4-difluorocyclohexyl)-N4-(oxetan-2-ylmethyl)isoindoline-2,4-dicarboxamide] | < 10 | < 10 |  |  |
| COc1ccc(NC(=O)N2Cc3cccc(C(=O)NCC4CCO4)c3C2)cc1Cl (centres unmarked) [Compound 42, N2-(3-chloro-4-methoxyphenyl)-N4-(oxetan-2-ylmethyl) isoindoline-2,4-dicarboxamide] | < 10 | < 10 |  |  |
| COc1ccc(NC(=O)N2Cc3cccc(C(=O)NCC4CCO4)c3C2)c(Cl)c1 (centres unmarked) [Compound 43, N2-(2-chloro-4-methoxyphenyl)-N4-(oxetan-2-ylmethyl)isoindoline-2,4-dicarboxamide] | 10 to 100 | < 10 |  |  |
| CNc1ccc(NC(=O)c2nc3cc(F)cc(C(=O)NCC4CCO4)c3o2)cc1 (centres unmarked) [Compound 44, 5-fluoro-N2-(4-(methylamino)phenyl)-N7-(oxetan-2-ylmethyl)benzo[d]oxazole-2,7-dicarboxamide] | < 10 | < 10 |  |  |
| COc1ccc(NC(=O)c2nc3cc(F)cc(C(=O)NCC4CCO4)c3o2)c(Cl)c1 (centres unmarked) [Compound 45, N2-(2-chloro-4-methoxyphenyl)-5-fluoro-N7-(oxetan-2-ylmethyl)benzo[d]oxazole-2,7-dicarboxamide] | < 10 | < 10 |  |  |
| COc1ccc(NC(=O)C(C)(C)Oc2ccc(F)cc2C(NCC2CCO2)C(F)(F)F)cc1 (centres unmarked) [Compound 46, 2-(4-fluoro-2-(2,2,2-trifluoro-1-((oxetan-2-ylmethyl)amino)ethyl)phenoxy)-N-(4-methoxyphenyl)-2-methylpropanamide] | < 10 | < 10 |  |  |
| COc1ccc(NC(=O)c2nc3cc(F)cc(C(=O)NCC4CCCO4)c3o2)cc1 (centres unmarked) [Compound 48, 5-fluoro-N2-(4-methoxyphenyl)-N7-(tetrahydrofuran-2-ylmethyl)-1,3-benzoxazole-2,7-dicarboxamide] | < 10 | < 10 |  |  |

The next lines start with the values.

| AC50 [1] [µM] | EC50 [2] [µM] | EC50 [3] [µM] | EC50 [4] [µM] | SMILES |
| --- | --- | --- | --- | --- |
| < 10 | 10 to 100 | < 10 |  | O=C(COc1ccccc1C(=O)NCC1CCO1)Nc1ccc(Br)cc1 (centres unmarked) [Compound 2, 2-((4-bromophenylcarbamoyl)methoxy)-N-((oxetan-2-yl)methyl)benzamide] |
| < 10 | < 10 | < 10 |  | O=C(Nc1ccc(Br)cc1)c1nc2cccc(C(=O)NCC3CCCO3)c2o1 (centres unmarked) [Compound 4, N2-(4-bromophenyl)-N7-((tetrahydrofuran-2-yl)methyl)benzo[d]oxazole-2,7-dicarboxamide] |
| < 10 | < 10 | < 10 | < 10 | COc1ccc(NC(=O)c2nc3cccc(C(=O)NCC4CCCO4)c3o2)cc1 (centres unmarked) [Compound 8, N7-((tetrahydrofuran-2-yl)methyl)-N2-(4-methoxyphenyl)benzo[d]oxazole-2,7-dicarboxamide] |
| < 10 | < 10 | < 10 | < 10 | O=C(Nc1ccc(O)cc1)c1nc2cc(F)cc(C(=O)NCC3CCO3)c2o1 (centres unmarked) [Compound 26, 5-fluoro-N2-(4-hydroxyphenyl)-N7-(oxetan-2-ylmethyl)benzo[d]oxazole-2,7-dicarboxamide] |
| < 10 | < 10 |  |  | CC(C)(Oc1ccccc1C(=O)NCC1CCCO1)C(=O)NC1CCOCC1 (centres unmarked) [Compound 35, 2-[1,1-dimethyl-2-oxo-2-(tetrahydropyran-4-ylamino)ethoxy]-N-(tetrahydrofuran-2-ylmethyl)benzamide] |
| < 10 | < 10 |  |  | CC(C)(Oc1ccc(F)cc1C(=O)NCC1CCO1)C(=O)NC1CCC(F)(F)CC1 (centres unmarked) [Compound 38, 2-[2-[(4,4-difluorocyclohexyl)amino]-1,1-dimethyl-2-oxo-ethoxy]-5-fluoro-N-(oxetan-2-ylmethyl)benzamide] |
| < 10 | < 10 |  |  | O=C(NCC1CCO1)c1cccc2c1CN(C(=O)Nc1ccc(C(F)(F)F)cc1)C2 (centres unmarked) [Compound 40, N4-(oxetan-2-ylmethyl)-N2-[4-(trifluoromethyl)phenyl]isoindoline-2,4-dicarboxamide] |
| < 10 | < 10 |  |  | O=C(Nc1ccc(OCF)cc1)c1nc2cc(F)cc(C(=O)NCC3CCO3)c2o1 (centres unmarked) [Compound 47, 5-fluoro-N2-[4-(fluoromethoxy)phenyl]-N7-(oxetan-2-ylmethyl)-1,3-benzoxazole-2,7-dicarboxamid] |
| < 10 | < 10 |  |  | O=C(Nc1ccc(OC(F)(F)F)cc1)c1nc2cc(F)cc(C(=O)NCC3CC(F)CO3)c2o1 (centres unmarked) [Compound 49, 5-fluoro-N7-[(4-fluorotetrahydrofuran-2-yl)methyl]-N2-[4-(trifluoromethoxy)phenyl]-1,3-benzoxazole-2,7-dicarboxamide] |
| < 10 | < 10 |  |  | COc1ccc(NC(=O)c2ncc(CC(=O)NCC3CCO3)o2)cc1 (centres unmarked) [Compound 50, N-(4-methoxyphenyl)-5-(2-((oxetan-2-ylmethyl)amino)-2-oxoethyl)oxazole-2-carboxamide] |
